For this assay, the target named is T1, rat CYP17 (Rattus norvegicus, UniProt P11715).
T1 construct: Rat testis tissue was collected and disrupted with 30 strokes of a glass homogenizer; from tissue; host or cells: rat testis (microsomal fraction)
T1 sequence (P11715 1-507): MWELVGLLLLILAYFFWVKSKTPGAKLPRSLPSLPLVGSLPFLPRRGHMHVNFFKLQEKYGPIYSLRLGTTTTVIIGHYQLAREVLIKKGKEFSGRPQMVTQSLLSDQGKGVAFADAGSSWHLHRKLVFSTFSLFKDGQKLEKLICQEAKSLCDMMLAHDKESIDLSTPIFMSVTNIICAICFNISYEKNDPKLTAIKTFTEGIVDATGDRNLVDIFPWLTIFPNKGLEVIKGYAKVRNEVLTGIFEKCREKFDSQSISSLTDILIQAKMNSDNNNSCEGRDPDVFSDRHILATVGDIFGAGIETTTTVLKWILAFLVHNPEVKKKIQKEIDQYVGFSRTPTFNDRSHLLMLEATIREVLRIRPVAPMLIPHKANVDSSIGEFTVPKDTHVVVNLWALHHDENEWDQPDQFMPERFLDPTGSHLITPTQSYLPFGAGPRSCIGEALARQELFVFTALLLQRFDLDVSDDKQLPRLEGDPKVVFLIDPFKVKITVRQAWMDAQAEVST
The experiment in a line: CYP17 inhibition assay in rat testicular microsomes. Type of assay: biochemical. The conditions noted are these: 3H3-17α-hydroxypregnenolone substrate, 60 minutes at 37° C. As for the experimental part:
CYP17 Inhibition Assay in Rat Testicular Microsomes (Rat CYP17) or Yeast Microsome Overexpressing Human CYP17
A. Materials • 1. NADPH (Sigma): A working stock was prepared by adding 25 μL of 6.5 mM NADPH in each tube. The final concentration of NADPH used in the assay was 325 μM. • 2. Potassium Phosphate Buffer: One molar (1M) solutions of K2HPO4 and KH2PO4 were prepared. Eight mL of the 1 M KH2PO4 and 1.98 mL of the 1 M K2HPO4 were combined and the pH was adjusted to 7.4. • 3. ^3H3-17α-hydroxypregnenolone (American Radiolabeled Chemicals, Inc., stock 1 μCi/μL): A 1:1 dilution of ^3H3-17α-hydroxypregnenolone in ethanol was prepared by combining 100 μL ^3H3-17α-hydroxypregnenolone+100 μL ethanol for one complete 96 well plate. For the reaction, 2 μL of the diluted ^3H3-17α-hydroxypregnenolone was added in each tube, i.e., 1 μCi/reaction. • 4. Microsome Isolation Buffer: The microsome isolation buffer was prepared by combining 250 mM Sucrose, 5 mM EDTA, 10 mM Tris HCl, 4 mM DTT, and adjusting to pH 7.4. • 5. TEG Buffer: The TEG buffer was prepared by combining 50 mM Tris HCl, 1 mM EDTA, and 20% Glycerol. • 6. Rat Testicular Microsomes: Rat testis tissue was collected and disrupted with 30 strokes of a glass homogenizer on ice with 250 μL of microsome isolation buffer, followed by centrifugation at 10,000 g for 10 minutes at 4° C. The supernatant was collected and centrifuged at 100,000 g for 45 minutes at 4° C. The pellet was dissolved in TEG Buffer and the protein was quantified. The homogenized microsome samples were then frozen at −80° C. • 7. Yeast Microsomes which overexpress the human CYP17 enzyme were obtained from Premas Biotech, India.
Potassium phosphate buffer (470 μL) was prepared as described above and was added to each well of a deep well plate. The test compound was diluted using a TECAN liquid handler and 5 μL of diluted compound was transferred to each well (96 deep well/1 mL). A solution (25 μL) of 6.5 mM NADPH was added (final concentration of 325 µM in the assay). ^3H3-17α-hydroxypregnenolone (2 μL of the working stock) was added to each tube. The plates were then pre-incubated for 15 minutes at 37° C. Following the pre-incubation, either 5 μL rat testicular microsomes (150-160 μg) or 5 μL of yeast microsomes expressing human CYP17 (1.7 pmol), was added. Incubation was at 37° C. for 60 minutes in the presence of oxygen. The plates were then placed in ice and chloroform (500 μL) was added, mixed well and incubated at 4° C. for 20 minutes. The plates were then centrifuged at 1000 rpm for 15 minutes at 4° C.
A portion (300 μL) of the aqueous solution was collected and mixed with a 5% aqueous suspension of activated charcoal (300 μL). The plates were then incubated at 4° C. for 30 minutes, after which the plates were centrifuged at 1000 rpm for 15 minutes at 4° C. From this, 125 μL of the aqueous solution was collected and plated into a 96 well plate. Microscint™ 40 [125 μL, Perkin-Elmer; containing a mixture of a polymer based on alkylphenolethoxylate (20-40%), diethanolamine-phosphoric acid ester ammonium salt (10-20%), sodium dioctyl sulphosuccinate (2.5-10%), triethyl phosphate (2.5-10%), 3,6-dimethyl-4-octyne-3,6-diol (≦2.5%), a polymer based on nonylphenolethoxylate (≦2.5%), diisopropyl naphthalene isomers (40-60%), 2,5-diphenyloxazole (≦2.5%), and 9,10-dimethylanthracene] was added and mixed well. After 30 minutes of incubation, the samples were analyzed with a MicroBeta® Trilux microplate liquid scintillation counter and luminometer (Perkin-Elmer).
Consider `CCC(c1ccc(-c2ccc(C(=O)NC)cc2)cn1)n1ccnc1` (stereo not drawn) [Example 9, 4-(6-(1-(1H-imidazol-1-yl)propyl)pyridin-3-yl)-N-methylbenzamide], for which the IC50 (in general, the concentration that inhibits the measured activity by half) is less than 50 nM.

In turn, `CCC(c1cnc(-c2ccc(NC(=O)OC(C)(C)C)cc2)s1)n1ccnc1` (stereo not drawn) [Example 31, {4-[5-(1-Imidazol-1-yl-propyl)-thiazol-2-yl]-phenyl}-carbamic acid tert-butyl ester] returned an IC50 of less than 50 nM.

Compound `CC(C)(c1ccc(-c2ccc(O)cc2)cn1)n1ccnc1` [Example 52, 4-[6-(1-Imidazol-1-yl-1-methyl-ethyl)-pyridin-3-yl]-phenol] came in with an IC50 of less than 50 nM.

The compound `CCC(c1ccc(-c2ccc(C(=O)O)cc2)cn1)n1ccnc1` (stereo not drawn) [Example 6, 4-(6-(1-(1H-imidazol-1-yl)propyl)pyridin-3-yl)benzoic acid] came in with an IC50 of 201 to 10000 nM.

`CCC(c1ccc(-c2ccc(C(N)=O)cc2)cn1)n1ccnc1` (stereo not drawn) [Example 10, 4-(6-(1-(1H-imidazol-1-yl)propyl)pyridin-3-yl)benzamide] had an IC50 of less than 50 nM.

`COc1ccc(-c2ccc(C(C)n3ccnc3)s2)cn1` (stereo not drawn) [Example 25, 5-[5-(1-Imidazol-1-yl-ethyl)-thiophen-2-yl]-2-methoxy-pyridine]: the IC50 was less than 50 nM.

The compound `CCC(c1ccc(-c2ccc(CO)cc2)cn1)n1ccnc1` (stereo not drawn) [Example 41, {4-[6-(1-Imidazol-1-yl-propyl)-pyridin-3-yl]-phenyl}-methanol] came in with an IC50 of less than 50 nM.

The compound `CCC(c1ccc(-c2ccccc2F)cn1)n1ccnc1` (stereo not drawn) [Example 48, 5-(2-Fluoro-phenyl)-2-(1-imidazol-1-yl-propyl)-pyridine] registered an IC50 of less than 50 nM.

`CC(c1ccc(-c2cccc(F)c2)cn1)n1ccnc1` (stereo not drawn) [Example 57, 5-(3-Fluoro-phenyl)-2-(1-imidazol-1-yl-ethyl)-pyridine] returned an IC50 of less than 50 nM.

As for `CCC(c1nnc(-c2ccc(F)cc2)s1)n1ccnc1` (stereo not drawn) [Example 19, 2-(1-(1H-imidazol-1-yl)propyl)-5-(4-fluorophenyl)-1,3,4-thiadiazole], the IC50 is less than 50 nM.

As to `CCC(c1ccc(-c2cccc(F)c2)cn1)n1ccnc1` (stereo not drawn) [Example 45, 5-(3-Fluoro-phenyl)-2-(1-imidazol-1-yl-propyl)-pyridine], the IC50 is less than 50 nM.

As for `COc1ccc(-c2ccc(C(C)n3ccnc3)s2)cc1` (stereo not drawn) [Example 36, 1-{1-[5-(4-Methoxy-phenyl)-thiophen-2-yl]-ethyl}-1H-imidazole], the IC50 is less than 50 nM.

On to `COc1ccc(-c2ccc(C(C)(C)n3ccnc3)nc2)cc1` [Example 61, 2-(1-Imidazol-1-yl-1-methyl-ethyl)-5-(4-methoxy-phenyl)-pyridine], for which the IC50 was 50 to 200 nM.

`COc1ccc(-c2cccnc2C(C)n2ccnc2)cc1` (stereo not drawn) [Example 66, 2-(1-(1H-imidazol-1-yl)ethyl)-3-(4-methoxyphenyl)-pyridine] gave an IC50 of 50 to 200 nM.

In the case of `CC(c1ccc(-c2ccc(F)cc2)cn1)n1ccnc1` (stereo not drawn) [Example 34, 5-(4-Fluoro-phenyl)-2-(1-imidazol-1-yl-ethyl)-pyridine], the IC50 is less than 50 nM.

The compound `CCOC(=O)c1ccc(-c2ncc(C(C)n3ccnc3)s2)cc1` (stereo not drawn) [Example 55, 4-[5-(1-Imidazol-1-yl-ethyl)-thiazol-2-yl]-benzoic acid ethyl ester] showed an IC50 of less than 50 nM.

On to `CCC(c1ccc(-c2ccc(NC(C)=O)cc2)cn1)n1ccnc1` (stereo not drawn) [Example 43, N-{4-[6-(1-Imidazol-1-yl-propyl)-pyridin-3-yl]-phenyl}-acetamide], for which the IC50 is less than 50 nM.

Regarding `CC(c1cnc(-c2ccc(C(=O)O)cc2)s1)n1ccnc1` (stereo not drawn) [Example 65, 4-[5-(1-Imidazol-1-yl-ethyl)-thiazol-2-yl]-benzoic acid], the IC50 was in the range of 201 to 10000 nM.

Take `CC(=O)Nc1ccc(-c2ccc(C(C)n3ccnc3)nc2)cc1` (stereo not drawn) [Example 64, N-{4-[6-(1-Imidazol-1-yl-ethyl)-pyridin-3-yl]-phenyl}-acetamide]: the IC50 was in the range of 201 to 10000 nM.

With `CCC(c1cnc(-c2cccc(F)c2)s1)n1ccnc1` (stereo not drawn) [Example 1, 5-(1-(1H-imidazol-1-yl)propyl)-2-(3-fluorophenyl)thiazole], the IC50 is less than 50 nM.

`CCC(c1ccc(-c2cccc(C#N)c2)cn1)n1ccnc1` (stereo not drawn) [Example 53, 3-[6-(1-Imidazol-1-yl-propyl)-pyridin-3-yl]-benzonitrile] gave an IC50 of less than 50 nM.

`COc1ccc(-c2ccc(C(CC(C)C)n3ccnc3)nc2)cc1` (stereo not drawn) [Example 62, 2-(1-Imidazol-1-yl-3-methyl-butyl)-5-(4-methoxy-phenyl)-pyridine] registered an IC50 of 50 to 200 nM.

`CC(C)CC(c1ccc(-c2ccc(O)cc2)s1)n1ccnc1` (stereo not drawn) [Example 23, 4-(5-(1-(1H-imidazol-1-yl)-3-methylbutyl)-thiophen-2-yl)phenol] came in with an IC50 of less than 50 nM.

`CCC(c1cnc(-c2ccc(F)cc2F)s1)n1ccnc1` (stereo not drawn) [Example 32, 2-(2,4-Difluoro-phenyl)-5-(1-imidazol-1-yl-propyl)-thiazole] returned an IC50 of less than 50 nM.

Take `COc1ccc(-c2ncc(C(C)n3ccnc3)s2)cn1` (stereo not drawn) [Example 58, 5-[5-(1-Imidazol-1-yl-ethyl)-thiazol-2-yl]-2-methoxy-pyridine]: the IC50 is 50 to 200 nM.

In the case of `CC(c1ccc(-c2ccc(=O)n(C(C)C)c2)s1)n1ccnc1` (stereo not drawn) [Example 21, 5-(5-(1-(1H-imidazol-1-yl)ethyl)thiophen-2-yl)-1-isopropylpyridin-2(1H)-one], the IC50 is less than 50 nM.

`CCc1cc(F)ccc1-c1ncc(C(CC)n2ccnc2)s1` (stereo not drawn) [Example 46, 2-(2-Ethyl-4-fluoro-phenyl)-5-(1-imidazol-1-yl-propyl)-thiazole] returned an IC50 of less than 50 nM.

On to `CC(C)(c1ccc(-c2ccc(O)cc2)s1)n1ccnc1` [Example 26, 4-[5-(1-Imidazol-1-yl-1-methyl-ethyl)-thiophen-2-yl]-phenol], for which the IC50 was less than 50 nM.

In turn, `CCC(c1ccc(-c2ccc(OC)cc2)s1)n1ccnc1` (stereo not drawn) [Example 3, 1-(1-(5-(4-methoxyphenyl)thiophen-2-yl)propyl)-1H-imidazole] gave an IC50 of less than 50 nM.

In turn, `CCC(c1ccc(-c2ccc(COCOC)cc2)cn1)n1ccnc1` (stereo not drawn) [Example 11, 2-(1-(1H-imidazol-1-yl)propyl)-5-(4-((methoxymethoxy)methyl)-phenyl)pyridine] yielded an IC50 of 50 to 200 nM.

In the case of `CC(c1ccc(-c2ccccc2F)cn1)n1ccnc1` (stereo not drawn) [Example 40, 5-(2-Fluoro-phenyl)-2-(1-imidazol-1-yl-ethyl)-pyridine], the IC50 is less than 50 nM.

The compound `COc1ccc(-c2ccc(C(C)n3ccnc3)nc2)cc1` (stereo not drawn) [Example 15, 2-(1-(1H-imidazol-1-yl)ethyl)-5-(4-methoxyphenyl)pyridine] yielded an IC50 of 50 to 200 nM.

In the case of `CC(c1ccc(-c2ccc(N)cc2)cn1)n1ccnc1` (stereo not drawn) [Example 14, 4-(6-(1-(1H-imidazol-1-yl)ethyl)pyridin-3-yl)aniline], the IC50 was in the range of 50 to 200 nM.

The values above are taken from patent publication US9199975B2, “Biaryl imidazole derivatives for regulating CYP17” (Asana Biosciences, LLC, priority 2011, dated 2015).
